Laboratory results published in ChEMBL document CHEMBL1130498, “Synthesis of conformationally constrained analogues of BRL-32872. Determination of stereochemistry and related pharmacological properties” (Bioorg Med Chem Lett, 1997).
“And” between values parts separate entries of the source, which are not always exact repeats. Equal values may be shown once.

Assay: Hill coefficient was evaluated

SMILES	Hill coefficient
COc1ccc(CCN2C3CC[C@@H]2[C@@H](N(C(=O)c2ccc([N+](=O)[O-])cc2)c2ccc(OC)c(OC)c2)C3)cc1OC	1.01 and 1.18
COc1ccc(CCN2C3CC[C@@H]2[C@H](N(C(=O)c2ccc([N+](=O)[O-])cc2)c2ccc(OC)c(OC)c2)C3)cc1OC	1.37 and 0.93
